Literature values, collected in patent publication US9011898B2, “Composition for active principles delivery containing a fatty acid excipient” (CID S.p.A., priority 2010, dated 2015).

Conditions: aqueous solutions

Stability in aqueous environments at neutral or basic pH with respect to acidic pH: less stable
Compound: CO[C@H]1C[C@@H]2CC[C@@H](C)[C@@](O)(O2)C(=O)C(=O)N2CCCC[C@H]2C(=O)O[C@H]([C@H](C)C[C@@H]2CC[C@@H](O)[C@H](OC)C2)CC(=O)[C@H](C)/C=C(\C)[C@@H](O)[C@@H](OC)C(=O)[C@H](C)C[C@H](C)/C=C/C=C/C=C/1C [Sirolimus]
